Data published in patent publication US11793197B2, “Use of an amphidinol for its fungicidal and/or bactericidal activity on fungi, oomycetes and/or pathogenic bacteria of plants and crop seeds” (Immunrise […], priority 2017, dated 2023).

Tested on: F. graminearum spores
Type: cell-based, Fusarium graminearum

C=C/C=C/CC/C=C/C=C/C=C/CC/C=C/[C@H](O)[C@H](O)[C@@H]1O[C@@H]([C@H](O)[C@H](O)C(=C)CC[C@@H](O)[C@H]2C[C@@H](O)[C@@H](O)[C@H]([C@@H](O)[C@H](O)/C=C(\C)CCC(O)CC(O)C(O)C(C)CC(O)C(O)CC(C)CCC(O)CC(=O)CC(O)CCCC(O)CCCCC(O)CO)O2)C[C@@H](O)[C@H]1O (stereo partly shown) [amphidinol 18]
antifungal activity against F. graminearum: has antifungal activity
